According to patent US5607926A, “Cephalosporin antibiotics” (Microcide Pharmaceuticals, Inc., priority 1995, dated 1997):
Values after ≈ are worked out from the molar mass of the structure shown. Counter-ions that a name gives are not always drawn. Like-named read-outs stand apart in the source and are kept apart here.

How the values were obtained:
Format in all cases: cell-based
E. faecalis ATCC 29212 = assay: In vitro antibacterial evaluation, MIC by agar dilution, E. faecalis ATCC 29212; details: Enterococcus faecalis, ATCC29212; E. faecalis ATCC 29212; read-out: MIC
Description: (§1) The compounds of the invention were evaluated against several β-lactamresistant bacteria strains by determining the minimum inhibitory concentration (MIC, μg/ml) of each compound with respect to each strain. The MIC, the lowest concentration of antibiotic which inhibits growth of the test organism, was determined by the agar dilution method.
(§2) To determine the MIC for bacterial isolates, the test compound was incorporated in a series of two-fold dilutions into liquified Mueller-Hinton agar. Upon solidification, a number of different bacterial strains were spot inoculated with a replicating device onto the agar surface. […] The procedures used in these studies have been standardized by the National Committee for Clinical Laboratory Standards (NCCLS), as per the NCCLS publication entitled METHODS FOR DILUTION ANTIMICROBIAL SUSCEPTIBILITY TESTS (1991), which is incorporated herein by reference.
(§3) Aliquots of antimicrobial agents were prepared in phosphate buffered saline (PBS) at pH 7.2. Tween 20 or DMSO was used as a solubilizing vehicle as needed. Standard methods of vortexing, sonicating and gentle heat were used to facilitate solubilizing the test agent. Typically, the concentration of the stock solution was 10× that of the highest drug concentration tested. A 1.28 mg/mL stock solution was used with a subsequent highest working concentration of 128 μg/mL. Serial two-fold dilutions were done through ≤0.25 μg/mL. Each drug level was tested in duplicate. Two-fold drug dilutions were done in sterile 50 mL tubes with a final drug volume of 5 mL. Upon the addition of 45 mL of molten agar, a 10-fold dilution resulted. Two, 25 mL. plates were then poured into 15×150 mm square Petri plates with grids and allowed to harden.
(§4) A control plate with a reference drug, either cefotaxime, vancomycin or imipenem, was used as the positive growth control. Stock concentrations of reference antibiotics were prepared and frozen at -80° C. Upon preparation, the control plates were sealed and stored in the refrigerator for up to 1 week prior to use; however, imipenem control plates had to be prepared just prior to use. All test plates were used within 24 hours of preparation.
(§5) Satisfactory results were obtained where the inoculum contained about 10^4 colony forming units (cfu) ±0.5 logs. Starting with pure cultures of the test isolates on agar plates, a few isolated colonies were transferred to a tube of nutrient broth and allowed to grow 4-6 hours at 35°-36° C. to reach log-phase growth. Dropwise addition of the broth culture to PBS was done to match a 0.5 McFarland turbidity standard equal to 10^8 cfu/mL. This was further diluted ten-fold in PBS to reach a working inoculum concentration of 10^7 cfu/mL. When 1 μL of the working inoculum was applied to the agar surface a concentration of about 10^4 cfu per spot was obtained.
(§6) Disposable sterile 1 μL loops were used to inoculate test plates, with each isolate in a designated grid on the agar plate. An alternate method of inoculation involved the use of a replica plater, a device with 48 steel pins allowing the simultaneous inoculation of multiple isolates. After the spots had dried, the plates were incubated at 35°-36° C. for 16-20 hours. Endpoints were assessed as the minimum inhibitory concentration (MIC) of antimicrobial agent.

P. aeruginosa ATCC 27853 = assay: In vitro antibacterial evaluation, MIC by agar dilution, P. aeruginosa ATCC 27853; details: Pseudomonas aeruginosa, ATCC27853, read-out: MIC
Description: as §1, §2, §3, §4, §5, §6

E. coli ATCC 25922 = assay: In vitro antibacterial evaluation, MIC by agar dilution, E. coli ATCC 25922; details: Escherichia coli, ATCC25922, read-out: MIC
Description: as §1, §2, §3, §4, §5, §6

[1] = test system: S. aureus 76 (Meth^R)(lac^+); assay: In vitro antibacterial evaluation, MIC by agar dilution, S. aureus 76; details: Staphylococcus aureus, read-out: MIC
Description: as §1, §2, §3, §4, §5, §6

S. aureus ATCC 29213 = assay: In vitro antibacterial evaluation, MIC by agar dilution, S. aureus ATCC 29213; details: Staphylococcus aureus, ATCC29213
Description: as §1, §2, §3, §4, §5, §6

E. faecium ATCC 35667 = assay: In vitro antibacterial evaluation, MIC by agar dilution, E. faecium ATCC 35667; details: Enterococcus faecium, ATCC35667, read-out: MIC
Description: as §1, §2, §3, §4, §5, §6

S. haemolyticus (Meth^R) = assay: In vitro antibacterial evaluation, MIC by agar dilution, S. haemolyticus; details: Staphylococcus haemolyticus, read-out: MIC
Description: as §1, §2, §3, §4, §5, §6

[2] = test system: S. aureus Col8A (Meth^S)(lac^-); assay: In vitro antibacterial evaluation, MIC by agar dilution, S. aureus Col8A; details: Staphylococcus aureus
Description: as §1, §2, §3, §4, §5, §6
The novel agents of this invention are notable for their enhanced activity against S. aureus Col and Enterococci (E. faecium and E. faecalis). The S. aureus Col strain is a high-level PBP2a producer, whereas S. aureus Col 8A, its isogenic partner, lacks PBP2a. […] Thus, the compounds of the present invention are effective against PBP2a-producing bacteria.

[3] = S. aureus ATCC 29213, read-out: MIC

SMILES	MIC (E. faecalis ATCC 29212) [mg/L]	MIC (P. aeruginosa ATCC 27853) [mg/L]	MIC (E. coli ATCC 25922) [mg/L]	MIC [1] [mg/L]	MIC (S. aureus ATCC 29213; [3]) [mg/L]	MIC (E. faecium ATCC 35667) [mg/L]	MIC (S. haemolyticus (Meth^R)) [mg/L]	MIC [2] [mg/L]	MIC (S. aureus ATCC 29213) [mg/L]
N#Cc1ccccc1SC1=C(C(=O)O)N2C(=O)[C@@H](NC(=O)/C(=N\OC3CCCC3)c3csc(N)n3)[C@H]2SC1 [Cmpd 53, (7R)-7-[(Z)-2-(aminothiazol-4-yl)-2-(cyclopentyloxyimino)acetamido]-3-(2-cyanophenylthio)-3-cephem-4-carboxylic acid]	8 (≈ 14 µM)	8 (≈ 14 µM)	1 (≈ 1.75 µM)	8 (≈ 14 µM)	1 (≈ 1.75 µM)	8 (≈ 14 µM)	8 (≈ 14 µM)	1 (≈ 1.75 µM)	–
CC(=O)NC(=N)SCc1ccccc1SC1=C(C(=O)O)N2C(=O)[C@@H](NC(=O)Cc3ccccc3)[C@H]2SC1 [Cmpd 78, (7R)-7-[(Phenylacetyl)amino]-3-(2-N-acetylamidinothiomethylphenylthio)-3-cephem-4-carboxylic acid]	4 (≈ 7.19 µM)	> 32	> 32	16 (≈ 28.7 µM)	–	4 (≈ 7.19 µM)	> 32	0.25 (≈ 0.449 µM)	0.25 (≈ 0.449 µM)
N=C(NC1CC1)SCc1ccccc1SC1=C(C(=O)O)N2C(=O)[C@@H](NC(=O)Cc3ccccc3)[C@H]2SC1 [Cmpd 79, (7R)-7-[(Phenylacetyl)amino]-3-(2-N-cyclopropylisothiouroniummethylphenylthio)-3-cephem-4-carboxylate, inner salt]	1	> 32	> 32	8	0.06	2	32	0.06	–
N=C(N)SCc1cccc(SC2=C(C(=O)O)N3C(=O)[C@@H](NC(=O)Cc4ccccc4)[C@H]3SC2)c1 [Cmpd 80, (7R)-7-[(Phenylacetyl)amino]-3-(3-isothiouroniummethylphenylthio)-3-cephem-4-carboxylate, inner salt]	1	> 32	16	8	< 0.06	2	8	< 0.06	–
Nc1nc(/C(=N/OCCF)C(=O)N[C@@H]2C(=O)N3C(C(=O)O)=C(Sc4ccnn4-c4ccccc4)CS[C@H]23)c(Cl)s1 [Cmpd 98, (7R)-7-[(Z)-2-(2-amino-5-chlorothiazol-4-yl)-2-(2-fluoroethyloxyimino)acetamido]-3-(1-N-phenylpyrazol-5-ylthio)-3-cephem-4-carboxylic acid]	1 (≈ 1.6 µM)	16 (≈ 25.6 µM)	8 (≈ 12.8 µM)	8 (≈ 12.8 µM)	0.5 (≈ 0.801 µM)	4 (≈ 6.41 µM)	8 (≈ 12.8 µM)	–	–
N=C(N)SCc1ccccc1SC1=C(C(=O)O)N2C(=O)[C@@H](NC(=O)Cc3ccc(O)cc3)[C@H]2SC1 [Cmpd 99, (7R)-7-[((4-Hydroxyphenyl)acetyl)amino]-3-(2-isothiouroniummethylphenylthio)-3-cephem-4-carboxylic acid, inner salt]	1	> 32	> 32	16	0.125	1	16	–	–
N=C(N)SCCc1ccccc1SC1=C(C(=O)O)N2C(=O)[C@@H](NC(=O)Cc3ccccc3)[C@H]2SC1 [Cmpd 100, (7R)-7-[(Phenylacetyl)amino]-3-(2-(2-isothiouronium)ethylphenylthio)-3-cephem-4-carboxylate, inner salt]	1	> 32	> 32	8	< 0.06	4	16	–	–
O=C(COc1ccccc1)N[C@@H]1C(=O)N2C(C(=O)O)=C(Sc3ccnn3-c3ccccc3)CS[C@H]12 [Cmpd 112, (7R)-7-[(phenyloxyacetyl)amino]-3-(1-N-phenylpyrazol-5-ylthio) -3-cephem-4-carboxylic acid]	4 (≈ 7.87 µM)	> 32	> 32	16 (≈ 31.5 µM)	–	4 (≈ 7.87 µM)	32 (≈ 62.9 µM)	–	–
CSCC(=O)N[C@@H]1C(=O)N2C(C(=O)O)=C(Sc3ccccc3CSC(=N)NC(=N)N)CS[C@H]12 [Cmpd 126, (7R)-7-[(methylthioacetyl)amino]-3-(2-(N-amidino)isothiouroniummethylphenylthio)-3-cephem-4-carboxylate, inner salt]	1	> 32	> 32	16	–	2	–	0.125	0.125
N=C(N)NCc1ccccc1SC1=C(C(=O)O)N2C(=O)[C@@H](NC(=O)Cc3ccccc3)[C@H]2SC1 [Cmpd 128, (7R)-7-[(Phenylacetyl)amino]-3-(2-guanidiniummethylphenylthio)-3-cephem-4-carboxylate, inner salt]	2	> 32	> 32	16	≤ 0.06	2	–	≤ 0.06	–
N=C(N)SCc1ccccc1SC1=C(C(=O)O)N2C(=O)[C@@H](NC(=O)/C(=N\O)c3csc(N)n3)[C@H]2SC1 [Cmpd 129, (7R)-7-[(Z)-2-(Aminothiazol-4-yl)-2-(hydroxyimino)acetamido]-3-(2-isothiouroniummethylphenylthio)-3-cephem-4-carboxylate, inner salt]	0.25	> 32	2	8	≤ 0.06	–	16	≤ 0.06	–
N=C(N)SCc1ccccc1SC1=C(C(=O)O)N2C(=O)[C@@H](NC(=O)/C(=N\O)c3ccccc3)[C@H]2SC1 [Cmpd 136, (7R)-7-[(Z)-2-(Phenyl)-2-(hydroxyimino)acetamido]-3-(2-isothiouroniummethylphenylthio)-3-cephem-4-carboxylate, inner salt]	0.5	> 32	> 32	4	0.125	1	4	–	–
